Measured values reported in patent US7803822B2, “Triazole derivative and use thereof” (Takeda Pharmaceutical Company Limited, priority 2005, dated 2010).

Target: T1, human PAR-1 (Homo sapiens, UniProt P25116)
T1 construct: expressed in transfected cells; host or cells: CHO-K1 (transformant flag/trn/CHO-K1)
T1 sequence (P25116 22-425): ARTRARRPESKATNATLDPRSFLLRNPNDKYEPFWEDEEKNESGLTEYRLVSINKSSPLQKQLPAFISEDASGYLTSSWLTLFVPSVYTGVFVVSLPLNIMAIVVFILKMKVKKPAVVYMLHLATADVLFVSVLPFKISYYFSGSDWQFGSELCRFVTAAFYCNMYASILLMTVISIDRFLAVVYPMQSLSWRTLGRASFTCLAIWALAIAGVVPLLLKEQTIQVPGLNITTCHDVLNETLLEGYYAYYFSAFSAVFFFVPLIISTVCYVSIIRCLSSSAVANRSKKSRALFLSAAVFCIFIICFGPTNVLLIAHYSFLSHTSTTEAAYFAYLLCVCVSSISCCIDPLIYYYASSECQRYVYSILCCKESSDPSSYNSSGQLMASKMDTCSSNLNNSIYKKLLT
Assay: Evaluation of PAR-1 antagonistic action by intracellular calcium concentration variation assay (FLIPR)
Format: cell-based
Conditions: human PAR-1-expressing CHO cells, agonist peptide SFLLRN-NH2 final concentration 0.3 nM, Fluo-3AM
Experimental: Evaluation of PAR-1 Antagonistic Action of Compound by Intracellular Calcium Concentration Variation Assay
Human PAR-1-expressing cells was plated at 3×10^4 cells/well on a 96 well clear bottom plate (Corning 3904 type) and cultured for 16-24 hr. The medium was removed from the wells of the plate, measurement buffer (50 μL, 115 mM NaCl, 5.4 mM KCl, 1.8 mM CaCl2, 0.8 mM MgCl2, 13.8 mM D-glucose, 0.1% BSA, 20 mM HEPES, pH 7.4) containing 2.5 μg/mL of Fluo-3AM (manufactured by Dojindo Laboratories), 0.08% Pluronic F-127 and 2.5 mM Probenecid was added to the cells and the mixture was reacted at 37° C. for 1 hr. The cells were washed twice with the measurement buffer. After addition of the measurement buffer (100 μL), a measurement buffer (50 μL) containing a test compound was added, and the mixture was stood still for 10 min. The plate was moved to a fluorometry image-plate reader (FLIPR-1, manufactured by Molecular Devices). […] The intracellular calcium concentration was measured by FLIPR.

Row | SMILES | IC50 [nM]
1 | CCCc1c(C(=O)NCc2cnc(C)cn2)nnn1-c1ccc(C(=O)NCC)cc1 [Example 83, 1-{4-[(ethylamino)carbonyl]phenyl}-N-[(5-methylpyrazin-2-yl)methyl]-5-propyl-1H-1,2,3-triazole-4-carboxamide] | 3600
2 | CCCc1c(C(=O)NC2CCCc3ccccc32)nnn1-c1ccc(C(=O)NCC)cc1 (stereo not drawn) [Example 89, 1-{4-[(ethylamino)carbonyl]phenyl}-5-propyl-N-(1,2,3,4-tetrahydronaphthalen-1-yl)-1H-1,2,3-triazole-4-carboxamide] | 670
3 | CCCc1c(C(=O)NC2CC2)nnn1-c1ccc(NC(=O)CC(F)(F)F)cc1 [Example 25, N-cyclopropyl-5-propyl-1-{4-[(3,3,3-trifluoropropanoyl)amino]phenyl}-1H-1,2,3-triazole-4-carboxamide] | 94
4 | CCNC(=O)c1ccc(-n2cc(C(=O)NC3CC3)nn2)c(OCCCc2ccccc2)c1 [Example 133, N-cyclopropyl-1-{4-[(ethylamino)carbonyl]-2-(3-phenylpropoxy)phenyl}-1H-1,2,3-triazole-4-carboxamide] | 270
5 | CCCc1c(C(=O)NC2CC2)nnn1-c1ccc(NC(=O)C2CC2)cc1 [Example 4, N-cyclopropyl-1-{4-[(cyclopropylcarbonyl)amino]phenyl}-5-propyl-1H-1,2,3-triazole-4-carboxamide] | 550
6 | C=CCCc1c(C(=O)NC2CC2)nnn1-c1ccc(NC(=O)NCC)cc1 [Example 41, 5-(3-buten-1-yl)-N-cyclopropyl-1-(4-{[(ethylamino)carbonyl]amino}phenyl)-1H-1,2,3-triazole-4-carboxamide] | 630
7 | CCCc1c(C(=O)NC2CC2)nnn1-c1ccc(NC(=O)NCC)cc1 [Example 27, N-cyclopropyl-1-(4-{[(ethylamino)carbonyl]amino}phenyl)-5-propyl-1H-1,2,3-triazole-4-carboxamide] | 370
8 | CCCc1c(C(=O)NC2CC2)nnn1-c1ccc(C(=O)NC(C)C)cc1 [Example 49, N-cyclopropyl-1-{4-[(isopropylamino)carbonyl]phenyl}-5-propyl-1H-1,2,3-triazole-4-carboxamide] | 3500
9 | CCCc1c(C(=O)NCc2cccc(F)c2)nnn1-c1ccc(C(=O)NCC)cc1 [Example 88, 1-{4-[(ethylamino)carbonyl]phenyl}-N-(3-fluorobenzyl)-5-propyl-1H-1,2,3-triazole-4-carboxamide] | 720
10 | CCCc1c(C(=O)NC2CC2)nnn1-c1ccc(C(=O)NC2CCCC2)cc1 [Example 54, 1-{4-[(cyclopentylamino)carbonyl]phenyl}-N-cyclopropyl-5-propyl-1H-1,2,3-triazole-4-carboxamide] | 1600
11 | C/C=C/c1c(C(=O)NC2CC2)nnn1-c1ccc(C(=O)NCC(F)(F)F)cc1 [Example 399, N-cyclopropyl-5-[(1E)-prop-1-en-1-yl]-1-(4-{[(2,2,2-trifluoroethyl)amino]carbonyl}phenyl)-1H-1,2,3-triazole-4-carboxamide] | 1400
12 | CCCc1c(C(=O)NCCc2c[nH]c3ccc(OC)cc23)nnn1-c1ccc(C(=O)NCC)cc1 [Example 87, 1-{4-[(ethylamino)carbonyl]phenyl}-N-[2-(5-methoxy-1H-indol-3-yl)ethyl]-5-propyl-1H-1,2,3-triazole-4-carboxamide] | 280
13 | CCCc1c(C(=O)NCC2CCCO2)nnn1-c1ccc(C(=O)NCC)cc1 (stereo not drawn) [Example 82, 1-{4-[(ethylamino)carbonyl]phenyl}-5-propyl-N-(tetrahydrofuran-2-ylmethyl)-1H-1,2,3-triazole-4-carboxamide] | 1900
14 | CCCc1c(C(=O)N2CCc3c([nH]c4ccccc34)C2)nnn1-c1ccc(C(=O)NCC)cc1 [Example 85, N-ethyl-4-[5-propyl-4-(1,3,4,9-tetrahydro-2H-β-carbolin-2-ylcarbonyl)-1H-1,2,3-triazol-1-yl]benzamide] | 1900
15 | CCCc1c(C(=O)NC2CC2)nnn1-c1ccc(NC(=O)NC)cc1 [Example 31, N-cyclopropyl-1-(4-{[(methylamino)carbonyl]amino}phenyl)-5-propyl-1H-1,2,3-triazole-4-carboxamide] | 3700
16 | CCCNC(=O)c1ccc(-n2nnc(C(=O)NC3CC3)c2CCC)cc1 [Example 55, N-cyclopropyl-5-propyl-1-{4-[(propylamino)carbonyl]phenyl}-1H-1,2,3-triazole-4-carboxamide] | 3600
17 | CCNC(=O)c1ccc(-n2nnc(C(=O)NC3CC3)c2CC2CCCC2)cc1 [Example 103, 5-(cyclopentylmethyl)-N-cyclopropyl-1-{4-[(ethylamino)carbonyl]phenyl}-1H-1,2,3-triazole-4-carboxamide] | 780

More lines, now with the values ahead:

Row | IC50 [nM] | SMILES
18 | 700 | CCNC(=O)c1ccc(-n2nnc(C(=O)NC3CC3)c2CCCc2ccccc2)cc1 [Example 100, N-cyclopropyl-1-{4-[(ethylamino)carbonyl]phenyl}-5-(3-phenylpropyl)-1H-1,2,3-triazole-4-carboxamide]
19 | 190 | CCNC(=O)c1ccc(-n2nnc(C(=O)NC3CC3)c2COc2cccc(F)c2)cc1 [Example 414, N-cyclopropyl-1-{4-[(ethylamino)carbonyl]phenyl}-5-[(3-fluorophenoxy)methyl]-1H-1,2,3-triazole-4-carboxamide]
20 | 620 | CCNC(=O)c1ccc(-n2nnc(C(=O)NC3CC3)c2CCCCF)cc1 [Example 108, N-cyclopropyl-1-{4-[(ethylamino)carbonyl]phenyl}-5-(4-fluorobutyl)-1H-1,2,3-triazole-4-carboxamide]
21 | 1200 | CCNC(=O)c1ccc(-n2nnc(C(=O)NC3CC3)c2CC(C)C)cc1 [Example 93, N-cyclopropyl-1-{4-[(ethylamino)carbonyl]phenyl}-5-isobutyl-1H-1,2,3-triazole-4-carboxamide]
22 | 820 | CCNC(=O)c1ccc(-n2nnc(C(=O)NC3CC3)c2CCCCCc2ccccc2)cc1 [Example 101, N-cyclopropyl-1-{4-[(ethylamino)carbonyl]phenyl}-5-(5-phenylpentyl)-1H-1,2,3-triazole-4-carboxamide]
23 | 750 | CCNC(=O)c1ccc(-n2nnc(C(=O)NC3CC3)c2COc2ccc(Br)cc2)cc1 [Example 116, 5-[(4-bromophenoxy)methyl]-N-cyclopropyl-1-{4-[(ethylamino)carbonyl]phenyl}-1H-1,2,3-triazole-4-carboxamide]
24 | 500 | CCNC(=O)c1ccc(-n2nnc(C(=O)NC3CC3)c2CCc2ccccc2)cc1 [Example 98, N-cyclopropyl-1-{4-[(ethylamino)carbonyl]phenyl}-5-(2-phenylethyl)-1H-1,2,3-triazole-4-carboxamide]
25 | 980 | CCNC(=O)c1ccc(-n2nnc(C(=O)NC3CC3)c2COc2ccc(F)cc2)cc1 [Example 123, N-cyclopropyl-1-{4-[(ethylamino)carbonyl]phenyl}-5-[(4-fluorophenoxy)methyl]-1H-1,2,3-triazole-4-carboxamide]
26 | 1400 | CCNC(=O)c1ccc(-n2nnc(C(=O)NC3CC3)c2COc2cccc(Cl)n2)cc1 [Example 118, 5-{[(6-chloropyridin-2-yl)oxy]methyl}-N-cyclopropyl-1-{4-[(ethylamino)carbonyl]phenyl}-1H-1,2,3-triazole-4-carboxamide]
27 | 480 | CCNC(=O)c1ccc(-n2nnc(C(=O)NC3CC3)c2CSc2ccccc2)cc1 [Example 130, N-cyclopropyl-1-{4-[(ethylamino)carbonyl]phenyl}-5-[(phenylthio)methyl]-1H-1,2,3-triazole-4-carboxamide]
